Measurements from PubChem BioAssay AID1963858 (Molecular Pharmacology Branch, DTP, NCI, 2024).
Activity calls are given as the source filed them. The calls were made as follows: active = viability on the fitted dose curve at most 10% of control; inactive = the rest.

Test system: HOP-62 multicell spheroids with HUVEC/MSC, viability
Assay: Anticancer human tumor HOP-62 cell line growth inhibition [KRAS2];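 as to IC50: viability read after a week of compound exposure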;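 as to viability, T/C: viability read after a week of compound exposure; 100% = DMSO vehicle-treated spheroids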
Conditions: for IC50: curve of first compound; for viability, T/C: stronger effect = lower value
How it was run: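 KRAS-mutant tumor cells were grown as spheroids with HUVEC endothelial cells and human MSCs as stroma. Targeted agents were tested alone and with KRAS pathway inhibitors. Doses started at or near clinical Cmax, or 10 microM, descending half-log.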

[1] = second compound 0.1 µM, first compound 0.000316 µM
[2] = second compound 0.1 µM, first compound 0.001 µM
[3] = second compound 0.1 µM, first compound 0.00316 µM
[4] = second compound 0.1 µM, first compound 0.01 µM
[5] = second compound 0.1 µM, first compound 0.0316 µM
[6] = second compound 0.1 µM, first compound 0.1 µM
[7] = second compound 0.316 µM, first compound 0.000316 µM
[8] = second compound 0.316 µM, first compound 0.001 µM
[9] = second compound 0.316 µM, first compound 0.00316 µM
[10] = second compound 0.316 µM, first compound 0.01 µM
[11] = second compound 0.316 µM, first compound 0.0316 µM
[12] = second compound 0.316 µM, first compound 0.1 µM
[13] = second compound 1 µM, first compound 0.000316 µM
[14] = second compound 1 µM, first compound 0.001 µM
[15] = second compound 1 µM, first compound 0.00316 µM
[16] = second compound 1 µM, first compound 0.01 µM
[17] = second compound 1 µM, first compound 0.0316 µM
[18] = second compound 1 µM, first compound 0.1 µM
[19] = second compound 3.16 µM, first compound 0.000316 µM
[20] = second compound 3.16 µM, first compound 0.001 µM
[21] = second compound 3.16 µM, first compound 0.00316 µM
[22] = second compound 3.16 µM, first compound 0.01 µM
[23] = second compound 3.16 µM, first compound 0.0316 µM
[24] = second compound 3.16 µM, first compound 0.1 µM
[25] = second compound 10 µM, first compound 0.0316 µM
[26] = second compound 10 µM, first compound 0.1 µM
[27] = second compound 0.0316 µM, first compound 0.0316 µM
[28] = second compound 0.0316 µM, first compound 0.1 µM
[29] = second compound 0.1 µM, first compound 0.316 µM
[30] = second compound 0.1 µM, first compound 1 µM
[31] = second compound 0.1 µM, first compound 3.16 µM
[32] = second compound 0.1 µM, first compound 10 µM
[33] = second compound 0.316 µM, first compound 0.316 µM
[34] = second compound 0.316 µM, first compound 1 µM
[35] = second compound 0.316 µM, first compound 3.16 µM
[36] = second compound 0.316 µM, first compound 10 µM
[37] = second compound 1 µM, first compound 0.316 µM
[38] = second compound 1 µM, first compound 1 µM
[39] = second compound 1 µM, first compound 3.16 µM
[40] = second compound 1 µM, first compound 10 µM
[41] = second compound 3.16 µM, first compound 0.316 µM
[42] = second compound 3.16 µM, first compound 1 µM
[43] = second compound 3.16 µM, first compound 3.16 µM
[44] = second compound 3.16 µM, first compound 10 µM

CN(C)C/C=C/C(=O)Nc1cc2c(Nc3ccc(F)c(Cl)c3)ncnc2cc1O[C@H]1CCOC1 + CC1OCC2(CCN(c3cnc(Sc4ccnc(N)c4Cl)c(N)n3)CC2)C1N
> 100 nM: IC50 (second compound 0.1 µM) | IC50 (second compound 0.316 µM) | IC50 (second compound 1 µM) | IC50 (second compound 3.16 µM)
< 0.316 nM: IC50 (second compound 10 µM)
inactive: viability, T/C [1] 112% | viability, T/C [2] 109% | viability, T/C [3] 103% | viability, T/C [4] 95.4% | viability, T/C [5] 102% | viability, T/C [6] 91.3% | viability, T/C [7] 97.6% | viability, T/C [8] 93.9% | viability, T/C [9] 104% | viability, T/C [10] 86.2% | viability, T/C [11] 90.9% | viability, T/C [12] 79.2% | viability, T/C [13] 110% | viability, T/C [14] 106% | viability, T/C [15] 107% | viability, T/C [16] 102% | viability, T/C [17] 105% | viability, T/C [18] 104% | viability, T/C [19] 60.8% | viability, T/C [20] 46.2% | viability, T/C [21] 53.3% | viability, T/C [22] 53.3% | viability, T/C [23] 56.7% | viability, T/C [24] 47.1% | outcome (second compound 10 µM, first compound 0.000316 µM) | outcome (second compound 10 µM, first compound 0.001 µM) | viability, T/C (second compound 10 µM, first compound 0.00316 µM) 43.6% | outcome (second compound 10 µM, first compound 0.01 µM) | viability, T/C [25] 49.4% | viability, T/C [26] 46.8%

O=C(c1cc(Cc2n[nH]c(=O)c3ccccc23)ccc1F)N1CCN(C(=O)C2CC2)CC1 + C=CC(=O)N1CCN(c2nc(OCC3CCCN3C)nc3c2CCN(c2cccc4cccc(C)c24)C3)CC1CC#N
inactive: viability, T/C [27] 76.6% | viability, T/C [28] 66.2% | viability, T/C (second compound 0.0316 µM, first compound 0.316 µM) 102% | viability, T/C (second compound 0.0316 µM, first compound 1 µM) 35.3% | viability, T/C (second compound 0.0316 µM, first compound 3.16 µM) 34.3% | viability, T/C (second compound 0.0316 µM, first compound 10 µM) 27.8% | viability, T/C [5] 45% | viability, T/C [6] 40.5% | viability, T/C [29] 33.8% | viability, T/C [30] 31.4% | viability, T/C [31] 29% | viability, T/C [32] 23% | viability, T/C [11] 38.1% | viability, T/C [12] 37.8% | viability, T/C [33] 35.2% | viability, T/C [34] 26.4% | viability, T/C [35] 20.9% | viability, T/C [36] 18.6% | viability, T/C [17] 26.4% | viability, T/C [18] 22.7% | viability, T/C [37] 39.3% | viability, T/C [38] 23.1% | viability, T/C [39] 21.7% | viability, T/C [40] 21.4% | viability, T/C [23] 11.3% | viability, T/C [24] 1.1% | viability, T/C [41] 36.4% | viability, T/C [42] 6.37%
< 31.6 nM: IC50 (second compound 0.1 µM) | IC50 (second compound 0.316 µM) | IC50 (second compound 1 µM) | IC50 (second compound 3.16 µM)
active: viability, T/C [43] 8.8% | viability, T/C [44] 1.75%
693 nM: IC50 (second compound 0.0316 µM)

CC(C)n1nc(-c2ccc3oc(N)nc3c2)c2c(N)ncnc21 + C=CC(=O)N1CCN(c2nc(OCC3CCCN3C)nc3c2CCN(c2cccc4cccc(C)c24)C3)CC1CC#N
< 0.316 nM: IC50 (second compound 0.1 µM) | IC50 (second compound 0.316 µM) | IC50 (second compound 1 µM) | IC50 (second compound 3.16 µM)
inactive: viability, T/C (second compound 0.0316 µM, first compound 0.000316 µM) 57.1% | viability, T/C (second compound 0.0316 µM, first compound 0.001 µM) 37% | viability, T/C (second compound 0.0316 µM, first compound 0.00316 µM) 23.5% | viability, T/C (second compound 0.0316 µM, first compound 0.01 µM) 17.5% | viability, T/C [27] 12.1% | viability, T/C [1] 36.3% | viability, T/C [2] 30.6% | viability, T/C [3] 14.9% | viability, T/C [4] 12.8% | viability, T/C [7] 29.9% | viability, T/C [8] 19.6% | viability, T/C [9] 14.9% | viability, T/C [10] 10.6% | viability, T/C [13] 23.1% | viability, T/C [14] 16.1% | viability, T/C [15] 13.3%
active: viability, T/C [28] 9.28% | viability, T/C [5] 11% | viability, T/C [6] 8.68% | viability, T/C [11] 8.56% | viability, T/C [12] 7.08% | viability, T/C [16] 9.5% | viability, T/C [17] 7.25% | viability, T/C [18] 5.88% | viability, T/C [19] 5% | viability, T/C [20] 0.34% | viability, T/C [21] 2.87% | viability, T/C [22] 0.44% | viability, T/C [23] 0.63% | viability, T/C [24] 0.48%
0.471 nM: IC50 (second compound 0.0316 µM)

COc1cc(Nc2ncc3c(n2)-c2ccc(Cl)cc2C(c2c(F)cccc2OC)=NC3)ccc1C(=O)O + C=CC(=O)N1CCN(c2nc(=O)n(-c3c(C)ccnc3C(C)C)c3nc(-c4c(O)cccc4F)c(F)cc23)C(C)C1
inactive: viability, T/C [5] 35.3% | viability, T/C [6] 29.2% | viability, T/C [29] 23.2% | viability, T/C [30] 23.4% | viability, T/C [31] 23.3% | viability, T/C [32] 16.6% | viability, T/C [11] 42.6% | viability, T/C [12] 31.5% | viability, T/C [33] 31.8% | viability, T/C [34] 32.6% | viability, T/C [35] 21.8% | viability, T/C [36] 20% | viability, T/C [17] 27.6% | viability, T/C [18] 38.6% | viability, T/C [37] 35.4% | viability, T/C [38] 31.6% | viability, T/C [39] 27.7% | viability, T/C [40] 21.9% | viability, T/C [23] 37.6% | viability, T/C [24] 36.7% | viability, T/C [41] 34% | viability, T/C [42] 33.7% | viability, T/C [43] 28.7% | viability, T/C [44] 22% | viability, T/C [25] 39.2% | viability, T/C [26] 32.3% | viability, T/C (second compound 10 µM, first compound 0.316 µM) 31.9% | viability, T/C (second compound 10 µM, first compound 1 µM) 33% | viability, T/C (second compound 10 µM, first compound 3.16 µM) 33.4% | viability, T/C (second compound 10 µM, first compound 10 µM) 25.5%
< 31.6 nM: IC50 (second compound 0.1 µM) | IC50 (second compound 0.316 µM) | IC50 (second compound 1 µM) | IC50 (second compound 3.16 µM) | IC50 (second compound 10 µM)
